Tests used:
[1] = target: T1, FBD35 (PfFKBP35 binding domain) (Plasmodium falciparum, UniProt Q8I4V8); assay: Fluorescence polarization competition, FBD35
T1 construct: FKBP35 Q5 -A128; 6His-SUMO (N, cleaved yes); made in house; host or cells: E. coli BL21 DE3

[2] = Plasma stability assay, mouse; type: in vitro ADME; conditions: percent remaining, 1 µM, 37 °C, 5 hours
Procedure: (§1) In 96-well round-bottom plates, sorbitol -synchronized cultures of ring-stage NF54 P. falciparum parasites were established in triplicate and treated with varying concentrations of the inhibitors (25-0.0038 μM) serially diluted in complete medium. Parasite proliferation rates were analyzed after 72 h using the Renilla-Glo Luciferase Assay, and luminescence was measured using the GloMax® Discover Microplate Reader. EC 50 values were obtained from corrected dose-response curves using GraphPad Prism (version 5; GraphPad Software). Data represent the mean % luminescence relative to 5% DMSO-treated (vehicle, 100% growth) and 100 nM chloroquine-treated (no growth) controls.
(§2) In black, clear-bottom 96-well plates (No. 3904 Corning Life Sciences), HEK293T cells were plated at 2x10^5 cells/mL in DMEM high glucose, pyruvate media (ThermoFisher Scientific, cat. 11995073) supplemented with 10% FBS and 1% pen -strep (100 μL final volume). Cells were incubated overnight at 37°C, 5% CO2. Using a Tecan D300e digital dispenser, cells were dosed in triplicate […]
(§3) concentration, 100 mM stock in DMSO) and Carfilzomib (10 µM to 4.6 nM final concentration, 10 mM stock in DMSO) normalizing DMSO to 0.25%. Cells were then incubated at 37 °C, 5% CO2 for 72 hours. Following incubation, cells were treated with 70 µL CellTiter-Glo® Luminescent Cell Viability Assay Reagent (Promega, cat. G7570) and incubated in the dark at room temperature for 30 minutes. Plates were read using an EnVision Multimode Plate Reader (PerkinElmer). Cell viability data was normalized to DMSO controls and analyzed in GraphPad Prism 8 by fitting the data to “[Inhibitor] vs. normalized response – variable slope” model to obtain the curves.
(§4) Each compound was prepared in duplicate at 1 µM final concentration (0.2% DMSO) in human or mouse plasma (Aldrich). Samples were incubated at 37 °C for 5 hours with mixing at 350 rpm on an orbital shaker. Aliquots of each sample were taken at time zero and following 5 hours. Each sample was quenched by adding acetonitrile in a 3:1 ratio and further diluting with 50 µl of PBS.
(§5) After quenching, samples were centrifuged to pellet precipitated partic ulates and an aliquot of supernatant was diluted 1:1 with water. The resulting solution was analyzed by UPLC -MS/MS with compounds detected by MRM detection on a triple quadrupole mass spectrometer. The ratio of compound peak areas at 0 and 5 hours were use d to calculate the percent remaining.

[3] = Plasma stability assay, human; type: in vitro ADME; conditions: percent remaining, 1 µM, 37 °C, 5 hours
Procedure: as §1, §2, §3, §4, §5

FKBP12 = target: T2, FKBP12 (Homo sapiens, UniProt P62942); assay: Fluorescence polarization competition, FKBP12; type: binding
T2 construct: 6His-SUMO (N, cleaved yes); made in house; host or cells: E. coli (identical protocol to FBD35, BL21 DE3)

[4] = system: NF54 P. falciparum parasites; assay: P. falciparum strain NF54 growth-inhibition assay; type: cell-based; conditions: Plasmodium falciparum; luciferase reporter NF54 line, 72 h
Procedure: Figure 6 P. falciparum strain NF54 growth-inhibition assay. […] Proliferation was measured by luminescence after a complete life-cycle and normalized to DMSO (100%) and chloroquine (100 nM, 0%). (B) Structural differences between synthetic ligands and compound IC50s (μM).
Substrate and Extracellular NanoLuc® Inhibitor (Promega, cat. N2160) were diluted at 1:166 and 1:500, respectively, in Opti -MEM I Reduced Serum Media. 25 µL of this solution was added to each well and plate was read immediately using an EnVision Multimode Plate Reader (PerkinElmer). The BRET ratio was calculated using the following formula:
BRET ratio = acceptorsample – acceptorno tracer control donorsample donorno tracer control
NanoBRET Target Engagement Assay (384-well)
HEK293T cells stably expressing either nLuc-FKBP12 or nLuc-FKBP35 were plated at 0.2×10^6 cells/mL in white, clear -bottom 384-well plates (Sigma Aldrich) in Opti -MEM I Reduced Serum Media (ThermoFisher Scientific) using a Mutidrop Combi Reagent Dispenser (ThermoFisher Scientific). Cells were incubated overnight at 37 °C, 5% CO 2. Using a Tecan D300e, the Rap-Gly-BDP tracer was added to cells to 1 µM. Plates were shaken at 700 RPM on an orbital plate shaker and incubated at 37 °C, 5% CO 2 for 10 minutes. Test compounds were added at the indicated concentrations using a Tecan D300e. Plates were shaken at 700 RPM on an orbital plate shaker and incubated at 37 °C, 5% CO 2 for 2 hours. NanoBRET Nano -Glo Substrate and Extracellular NanoLuc® Inhibitor (Promega, cat. N2160) were diluted at 1:166 and 1:500, respectively, in Opti-MEM I Reduced Serum Media. 10 µL of this solution was added to each well and plate was read immediately using an EnVision Multimode Plate Reader (PerkinElmer). The BRET ratio was calculated using the above formula.
Parasite Culture and Inhibition
NF54 P. falciparum parasites constitutively expressing Renilla luciferase (RLuc) and Blasticidin-S deaminase under the PfHsp86 5’ and PfHRP2 3‘ regulatory sequences integrated in the cg6 chromosomal locus 4 were maintained continuous ly in media consisting of human erythrocytes at 2% haematocrit (O+) resuspended in RPMI 1640 (Gibco® 31800022) supplemented with 5% Albumax (Gibco® 11021045; complete medium) and 2.5 µg/mL of Blasticidin (RPI Corp B12150-0.1) in a gas mixture consisting of 5% CO2, 1% O2, and 94% N2 at 37 °C (Trager and Jensen 2005).
Parasitemia was determined every 48 h through microscopic examination of thin blood smears fixed in methanol, stained with 10% Giemsa solution, and sub-cultured to 0.5-1% parasitaemia.
Compound susceptibility assays
as §1, §2
concentration, 100 mM stock in DMSO) and Carfilzomib (10 µM to 4.6 nM final concentration, 10 mM stock in DMSO) normalizing DMSO to 0.25%. Cells were then incubated at 37 °C, 5% CO2 for 72 hours. Following incubation, cells were treated with 70 µL CellTiter-Glo® Luminescent Cell […]

[5] = Cell viability assay (CellTiter-Glo); type: cell-based; conditions: human; HEK293T, 72 hour treatment; read-out: IC50 cell viability
Procedure: as §1, §2, §3
Each compound was prepared in duplicate at 1 µM final concentration (0.2% DMSO) in human or mouse plasma (Aldrich). […]
After quenching, samples were centrifuged to pellet precipitated partic ulates and an aliquot of supernatant was diluted 1:1 with water. The resulting solution was analyzed by UPLC -MS/MS with compounds detected by MRM detection on a triple quadrupole mass spectrometer. […]

T1 sequence (Q8I4V8 5-128): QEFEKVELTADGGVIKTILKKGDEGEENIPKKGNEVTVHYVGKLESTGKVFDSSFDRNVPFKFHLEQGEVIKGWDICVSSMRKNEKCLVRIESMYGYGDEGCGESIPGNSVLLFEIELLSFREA
T2 sequence (P62942 whole entry): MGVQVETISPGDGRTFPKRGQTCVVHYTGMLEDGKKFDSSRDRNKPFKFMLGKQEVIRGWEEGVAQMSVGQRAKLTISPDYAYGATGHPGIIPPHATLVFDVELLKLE

Structure (SMILES) | IC50 [1] [nM] | Plasma Stability (mouse) [2] [%] | Plasma Stability (human) [3] [%] | IC50 (FKBP12) [nM] | IC50 [4] [nM] | IC50 at 72 h [5] [nM] | fold weaker binding by FP ([1]; acrylamide moved to ortho position, compared with 1a) [fold]
C=CC(=O)Nc1cccc([C@@H](CCc2ccc(OC)c(OC)c2)OC(=O)[C@@H]2CCCCN2C(=O)C(=O)C(C)(C)CC)c1 [1a] | 206 | 48 | 92 | 132 | 1400 | – | –
C=CC(=O)OCC(C)(C)C(=O)C(=O)N1CCCC[C@H]1C(=O)O[C@H](CCc1ccc(OC)c(OC)c1)c1ccccc1 [2c] | 559 | 0 | 0 | 166 | 13000 | – | –
CCC(=O)Nc1cccc([C@@H](CCc2ccc(OC)c(OC)c2)OC(=O)[C@@H]2CCCCN2C(=O)C(=O)C(C)(C)CC)c1 [1b] | 76 | 18 | 90 | 58 | 1900 | – | –
C=CC(=O)Nc1ccccc1[C@@H](CCc1ccc(OC)c(OC)c1)OC(=O)[C@@H]1CCCCN1C(=O)C(=O)C(C)(C)CC [1c] | 2850 | 31 | 62 | 423 | 1900 | 75000 | > 10
